For 70 compounds, cytotoxicity results are on record in ChEMBL document CHEMBL3507680, “University of Dundee, Gates Library screen for HepG2 cell viability”.

Structures are written as SMILES.

A short description of the data set: Human HepG2 cell viability assay in 384 well format. The class given is toxicity, cell-based. Set-up: dose 125 nL, time 70.5 hour; cytotoxicity at 70.5 h: concentration not given beside the values. The note with it: HepG2 cells, read-out: Inhibition.
As for `CC(=O)c1c(C)nn(S(=O)(=O)c2ccc(F)cc2)c1C`, the cytotoxicity at 70.5 h was 1.95%. The same measure for `CC(C)NC(=O)[C@@]12CCO[C@@H]1CCN(Cc1ccco1)C2`: 1.53%; for `CCc1nc(C2CCCN(C(=O)C(C)(C)NS(C)(=O)=O)C2)no1` (stereo not given): 0.741%; for `CS(=O)(=O)N1CCCC12CCCN(S(=O)(=O)c1ccc(F)cc1)C2` (stereo not given): -8.04%.

On to `CCC[C@@H]1CN(C(=O)c2ccccc2C(C)=O)C[C@H]1N(C)C`, for which the cytotoxicity at 70.5 h turned out to be 7.99%. Turning to `NC(=O)CCN(C(=O)CSc1ccc(F)cc1)c1ccc(F)cc1`, the cytotoxicity at 70.5 h came out at 30.2%. For the compound `Cc1cccc(C(=O)N2CCCC2)c1NCC(=O)NC(C)(C#N)C1CC1` (stereo not given), the cytotoxicity at 70.5 h came to 28.8%. As for `NC(=O)CCC1CCCN(c2ncnc3c2Cc2ccccc2OC3)C1` (stereo not given), the cytotoxicity at 70.5 h is -4.64%. Consider `CNC(=O)C1CCCCN1C(=O)CCn1cnc2sccc2c1=O` (stereo not given), for which the cytotoxicity at 70.5 h was -1.4%. The same measure for `CS(=O)(=O)Cc1nc(CCc2ccccc2)nn1-c1ccccn1`: -10.4%; for `O=C(Cn1ncc2c(c1=O)CCCC2)Nc1cccc2[nH]ccc12`: 6.81%; for `COCc1ccc(C(=O)N2CCC(Oc3ccccc3OC)CC2)s1`: -15%. The same measure for `Cc1cccc(CN2CCN3C[C@H](Oc4cncnc4)C[C@H]3C2)n1`: -0.54%. The same measure for `CCC1CN(CCNS(C)(=O)=O)c2ccccc2O1` (stereo not given): -2.49%. With `CS(=O)(=O)N1CCC(N2CCCC2c2ccccn2)CC1` (stereo not given), the cytotoxicity at 70.5 h turned out to be 2.33%. As for `COc1ccc(OC)c(CCNC(=O)NC(C)Cn2ccnc2)c1` (stereo not given), the cytotoxicity at 70.5 h was found to be 22%.

Turning to `COc1c(C(=O)NCc2cccnc2)nnn1Cc1ccc(C)cc1`, the cytotoxicity at 70.5 h is -15.1%.

On to `Cc1cnn(CC(C)NCc2ccc(OCc3cscn3)cc2)c1` (stereo not given), for which the cytotoxicity at 70.5 h is -6.24%. Consider `COc1ccc(CCC(=O)N2CCCCC2Cn2cccn2)cc1F` (stereo not given), for which the cytotoxicity at 70.5 h was -7.2%.

Turning to `Cc1ncc(CN2CCOC(CN(C)c3cccnn3)C2)s1` (stereo not given), the cytotoxicity at 70.5 h was -9.59%. As to `Cc1cc(C)n(-c2cccc(C(=O)Nc3n[nH]c(C4CCCO4)n3)c2)n1` (stereo not given), the cytotoxicity at 70.5 h is -8.19%. For `O=C(c1cocn1)N1CCC2(CC1)COC(COCc1ccccn1)C2` (stereo not given), the cytotoxicity at 70.5 h worked out at 0.202%. `Cc1ccc(CNC2(Cc3cc(-c4ccccc4)on3)COC2)o1`: the cytotoxicity at 70.5 h is -0.988%. Regarding `Cc1occc1C(=O)N1CCC2(CCN(Cc3nccs3)CC2)C1`, the cytotoxicity at 70.5 h is -5.43%.

With `CO[C@@H]1CN(c2ccccc2)S(=O)(=O)[C@@]12CCN(CC1CC1)C2`, the cytotoxicity at 70.5 h was -6.15%.

Consider `CC1=C(C(N)=O)C(c2cn(C)nc2C)N2C(=O)CSC2=N1` (stereo not given), for which the cytotoxicity at 70.5 h was -9.38%.

For the compound `COc1cc(C)c(CN2CCC3(CC2)[C@H](O)C[C@@H]3OCCN)cc1C`, the cytotoxicity at 70.5 h was determined as 28.1%.

Turning to `FC(F)(F)c1ccc(CNC[C@H]2COCc3nc4cccnc4n32)cc1`, the cytotoxicity at 70.5 h is -3.68%. For `CCNC(=O)NC[C@@H]1C=C(C)[C@H](CC(=O)NCCN(C)C)C[C@H]1C(C)C`, the cytotoxicity at 70.5 h was -0.736%.

Consider `CC(=O)N1CCN(C(=O)NC(C)C)CC2(CNC(=O)C2)C1` (stereo not given), for which the cytotoxicity at 70.5 h was -28.3%. As to `CCc1n[nH]c(C2CN(C(=O)CCOCC(F)(F)F)CCO2)n1` (stereo not given), the cytotoxicity at 70.5 h is -12.9%. With `Cc1nnc2n1CCN(CC(=O)N1CCc3ccccc3C1)C2`, the cytotoxicity at 70.5 h was found to be 49.9%. The same measure for `Cc1nc(COC[C@H]2CC[C@H]3[C@H](CCN3C(N)=O)O2)cs1`: -1.77%. On to `CC(C)N1CC2(CCC1=O)CCN(c1ccnc3ccccc13)CC2`, for which the cytotoxicity at 70.5 h is 41.8%. `Cc1cccc(-n2cc(C(=O)N3CCCC(n4ccnc4)C3)nn2)c1` (stereo not given): the cytotoxicity at 70.5 h was determined as 15.2%. Consider `c1nc2n(c1CN1CCCCC1)CCN(C1CCOC1)CC2` (stereo not given), for which the cytotoxicity at 70.5 h is -3.62%. On to `Cc1cc(C)c2[nH]c(=O)c(CN3CCC(O)(CN(C)C)C3)cc2c1` (stereo not given), for which the cytotoxicity at 70.5 h was -15.6%. Regarding `CNc1nc(C)c(C(=O)N2CCCCC2CCc2ccccc2)s1` (stereo not given), the cytotoxicity at 70.5 h is -5.18%. For the compound `CC(C)NC(=O)c1nc2c(s1)CCCN2Cc1ccccc1`, the cytotoxicity at 70.5 h is -6.15%. In the case of `CCN(CC1CN(CC2CCC2)CCO1)c1cccnn1` (stereo not given), the cytotoxicity at 70.5 h was -6.19%. Consider `CCN(CC1CCOC1)C(=O)NCc1nnc2n1CCC2` (stereo not given), for which the cytotoxicity at 70.5 h is -5.15%. Consider `Cc1csc(N2CCCN(C(=O)c3cccs3)CC2)n1`, for which the cytotoxicity at 70.5 h turned out to be 3.15%.

`O=C(c1ccoc1)N1CCC2(C1)CN(c1nccs1)C2`: the cytotoxicity at 70.5 h is -2.55%. Consider `CN(Cc1nc(C2CC2)no1)C1CCS(=O)(=O)C1` (stereo not given), for which the cytotoxicity at 70.5 h is -4.77%.

Consider `Cc1cccc(CN2C[C@@H]3OCCN(S(=O)(=O)N(C)C)[C@@H]3C2)n1`, for which the cytotoxicity at 70.5 h was -6.13%. Regarding `Fc1ccc(OCCNC2CCN(Cc3ccccn3)CC2)c(F)c1`, the cytotoxicity at 70.5 h is 20.2%. The same measure for `Cc1cc(C)cc(C(=O)Nc2ccc(CC3CC(=O)NC3=O)cc2)c1` (stereo not given): -1.28%; for `c1cc(-c2n[nH]c(CNc3nnc(C4CC4)o3)n2)ccn1`: 0.716%; for `Cc1c(C)n(Cc2ccccn2)c2nc3c(c(N)c12)CCCC3`: -14.4%. For the compound `CCn1nc(C)cc1C(=O)N1C[C@@H]2C[C@@H](C)O[C@@H]2C1`, the cytotoxicity at 70.5 h was -7.68%.

In the case of `NC(=O)C1CN(C(=O)C2(c3ccc(F)cc3F)CCCC2)CCO1` (stereo not given), the cytotoxicity at 70.5 h was -1.48%.

On to `Cc1ccsc1CN(C)C(=O)c1cc2c([nH]c1=O)CCCC2=O`, for which the cytotoxicity at 70.5 h was -7.76%. Regarding `O=C(CN1CCCC1)N1CCCC1c1nc(O)cc(-c2ccccn2)n1` (stereo not given), the cytotoxicity at 70.5 h is 11.1%. On to `CCn1cc(S(=O)(=O)N2CCC(C)CC2)c(C)n1`, for which the cytotoxicity at 70.5 h is -14%.

As for `CC(C)n1ncc2c1NC(=O)CC2c1ccccc1Cl` (stereo not given), the cytotoxicity at 70.5 h was -6.71%.

Turning to `Cc1ccccc1CN(CCN(C)C)Cc1ccc(O)c(C(=O)O)c1`, the cytotoxicity at 70.5 h was -8.19%. For the compound `COc1ccc2c(c1)OCC(CNC(=O)NC(C)(C)C)C2` (stereo not given), the cytotoxicity at 70.5 h is -0.00962%. With `Cc1cccc(C)c1OCC(=O)NS(=O)(=O)c1c(C)noc1C`, the cytotoxicity at 70.5 h is -14.4%. For the compound `O=C(CN1CCN(C(=O)c2cccc(-c3ccoc3)c2)CC1)C1CC1`, the cytotoxicity at 70.5 h is -5.66%. Turning to `CN(C)c1cccc(C(=O)N2CCCC2c2ncc3c(n2)CCNC3)c1` (stereo not given), the cytotoxicity at 70.5 h was -2.08%.

Take `Cc1nc(C2CCCN2C(=O)c2ccc(N(C)C)nn2)no1` (stereo not given): the cytotoxicity at 70.5 h is 25.8%. The figure for `c1coc(-c2noc(CN3CCCC(Cn4cncn4)C3)n2)c1` (stereo not given) is 26%. For the compound `CCCc1noc(CCC(=O)N2CCN(C)CC2c2ccccc2)n1` (stereo not given), the cytotoxicity at 70.5 h is -15%.

Consider `COCCN1C[C@H]2CN(Cc3cccc(OC(F)(F)F)c3)CCN2C1=O`, for which the cytotoxicity at 70.5 h is -7.08%. The figure for `CCOC(C)c1noc(CN2CCN(Cc3cccc(F)c3)CC2)n1` (stereo not given) is -7.41%; for `Cn1nc(CNC(=O)c2ccc(OC(F)(F)F)cc2)c2c1CCOC2` it is 2.03%. `COCC(=O)N1CCO[C@]2(CCC[C@H]2COC)C1`: the cytotoxicity at 70.5 h came out at 9.79%. The figure for `Fc1ccc(CN2Cc3nccn3CC(CN3CCOCC3)C2)cc1` (stereo not given) is -8.01%; for `CN(C)C(=O)N1CCN(C(=O)c2ccn3ccnc3c2)CC1` it is -3.58%.

Take `Cc1cc(-c2nccs2)nc(C2CCN(Cc3cccs3)CC2)n1`: the cytotoxicity at 70.5 h was -5.42%.
